Experimental data: patent publication US20250066736A1, “HIGH-THROUGHPUT 3D CELL SPHEROID CULTURE CHIP, PREPARATION PROCESS AND USES THEREOF” (National Taiwan University, priority 2023, published 2025)

Test system: hepatocytes
Test: In vitro liver fibrosis/toxicity model: relative cell viability of hepatocytes with CCl4-induced injury
Type: cell-based, Sprague Dawley rats
Settings: for relative cell viability: 24 h (day 1)
Method: The procedure regarding in vitro liver fibrosis model is as follows. To create an in vitro toxicity model, we used CCl4 as a known hepatotoxic agent capable of inducing severe hepatotoxicity, ultimately leading to liver fibrosis. Initially, a stock solution of CCl4 was prepared by dissolving it in DMSO to a concentration of 20%. Subsequently, hepatocytes were aliquoted into 15-mL centrifuge tubes. These hepatocytes were subjected to a 10-min toxication process with CCl4 (0.05, 0.075, 0.1, 0.15, 0.2%)-containing culture medium (serum-free). Subsequently, hepatocytes were washed three times with PBS with centrifugation at 50×g for 1 min at 4° C. Thereafter, the supernatant was carefully removed, and the final cell pellet was seeded onto 0.1 mg/mL collagen-coated Petri dish at a density of 5×10^5 cells/mL.
The procedure regarding relative cell viability and liver-specific function of in vitro HUVEC-covered hepatocyte spheroids embedded in gel cultures is as follows. To assess relative cell viability, separate media formulations were used for 2D dish and 3D gel cultures. Specifically, 10% MTT-containing medium was used for the 2D dish culture, whereas 10% CCK8-containing medium was used for evaluating the cell viability in 3D hydrogel or spheroids. For MTT analysis, after 4-h incubation, half of the supernatant was removed from each well, and an equivalent volume of DMSO was added. Following an additional 10 min of incubation, absorbance was measured at 570 nm. For CCK8 analysis, after 4 h of incubation, 100 μL of the supernatant was transferred to a 96-well plate, and absorbance was measured at 450 nm. To calculate relative cell viability from days 1 to 14, the absorbance value of hepatocytes (or hepatocyte spheroids) in the control group (only gel without cells) measured on day 1 was used as baseline (blank) to exclude the influence of the gel. The absorbance value of each experimental condition was then divided by the value of the blank to obtain relative cell viability.

Question: Which results are given for `ClC(Cl)(Cl)Cl` [CCl4, Carbon tetrachloride]?
Answer: relative cell viability (CCl4 concentration 0.05%): 60.53%±3.19%; relative cell viability (CCl4 concentration 0.075%): 51.70%±5.99%; relative cell viability (CCl4 concentration 0.1%): 28.06%±2.29%; relative cell viability (CCl4 concentration 0.15%): 2.67%±0.25%; relative cell viability (CCl4 concentration 0.2%): 2.46%±0.63%; half-maximal inhibitory concentration (IC50) for hepatocytes (estimated from viability at 24 h): 0.075%
